The record followed here is US20220402916A1, “SMALL MOLECULE INHIBITORS OF KRAS G12C MUTANT” (Merck Sharp & Dohme Corp., priority 2019, published 2022).

The test system of one test is NCI-H358 cells. The experiment in a line: Cellular phospho-ERK assay. Type of test: cell-based. As to conditions: NCI-H358 cells, 2 hour incubation, ratio of p-Erk vs total Erk, read-out: IC50. Put shortly:
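15,000 cells/well seeded overnight, then dose-response compound treatment for 2 h at 37 °C in RPMI medium. Lysed and read by AlphaLISA SureFire Ultra multiplex; p-ERK/total ERK ratio as readout, IC50 from 4-parameter logistic fit.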

The target in test [1] is T1, Biotinylated KRAS G12C protein (Homo sapiens, UniProt P01116, C118S/C51S/C80L/G12C).
T1 construct: 183 amino acids; biotin on K10
Kind of test: SOS-catalyzed nucleotide exchange assay. It is filed as biochemical. The note with it: apparent potency; preincubation time of 60 minutes prior to addition of SOS.

Structures are written as SMILES. Read-outs that look alike come from different tables or passages of the source.

T1 sequence (P01116 with tags, fused parts or gaps isoform P01116-2 G12C/C51S/C80L/C118S): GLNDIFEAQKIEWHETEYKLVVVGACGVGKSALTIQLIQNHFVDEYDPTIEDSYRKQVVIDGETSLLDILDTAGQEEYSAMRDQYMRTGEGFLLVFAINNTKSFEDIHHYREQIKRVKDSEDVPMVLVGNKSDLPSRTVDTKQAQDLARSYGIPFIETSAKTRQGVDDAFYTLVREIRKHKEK

One may read the IC50 as the concentration at which inhibition is half-maximal. Take `C=CC(=O)N1CCN(c2cc(C(=O)NCCN(C)C)nc3c2CCN(c2cccc4cccc(C)c24)C3)C[C@@H]1CC#N` [Compound 64, (S)-4-(4-acryloyl-3-(cyanomethyl)piperazin-1-yl)-N-(2-(dimethylamino)ethyl)-7-(8-methylnaphthalen-1-yl)-5,6,7,8-tetrahydro-1,7-naphthyridine-2-carboxamide]: the IC50 was found to be 106 nM in the test on NCI-H358 cells (Homo sapiens, NCI-H358, 2 h) and 2.7 nM in test [1].

Take `C=CC(=O)N1CCN(c2cc(C(=O)NC(C)CN3CCC(C)(O)C3)nc3c2CCN(c2cccc4cccc(C)c24)C3)C[C@@H]1CC#N` (single isomer, unassigned) [Compound 76, 4-((S)-4-acryloyl-3-(cyanomethyl)piperazin-1-yl)-N-((S or R)-1-((S or R)-3-hydroxy-3-methylpyrrolidin-1-yl)propan-2-yl)-7-(8-methylnaphthalen-1-yl)-5,6,7,8-tetrahydro-1,7-naphthyridine-2-carboxamide]: the IC50 in the test with NCI-H358 cells was found to be 207 nM; in test [1], 6.2 nM.

Take `C=CC(=O)N1CCN(c2cc(C(=O)NC[C@H]3CCCN3)nc3c2CCN(c2cccc4cccc(C)c24)C3)C[C@@H]1CC#N` [Compound 98, 4-((S)-4-acryloyl-3-(cyanomethyl)piperazin-1-yl)-7-(8-methylnaphthalen-1-yl)-N-(((R)-pyrrolidin-2-yl)methyl)-5,6,7,8-tetrahydro-1,7-naphthyridine-2-carboxamide]: the IC50 in the test with NCI-H358 cells (Homo sapiens, NCI-H358, 2 h) was 1040 nM; in test [1], 6.2 nM.

Regarding `C=CC(=O)N1CCN(c2cc(C(=O)N[C@H]3CC[C@@H](NC)CC3)nc3c2CCN(c2cccc4cccc(C)c24)C3)C[C@@H]1CC#N` [Compound 96, 4-((S)-4-acryloyl-3-(cyanomethyl)piperazin-1-yl)-N-(cis-4-(methylamino)cyclohexyl)-7-(8-methylnaphthalen-1-yl)-5,6,7,8-tetrahydro-1,7-naphthyridine-2-carboxamide], the IC50 was 5470 nM in the test with NCI-H358 cells (Homo sapiens, NCI-H358, 2 h) and 56 nM in test [1].

Turning to `C=CC(=O)N1CCN(c2cc(C(=O)N[C@H](C)CN(C)C)nc3c2CCN(c2cccc4cccc(C)c24)C3)C[C@@H]1CC#N` [Compound 65, 4-((S)-4-acryloyl-3-(cyanomethyl)piperazin-1-yl)-N-((R)-1-(dimethylamino)propan-2-yl)-7-(8-methylnaphthalen-1-yl)-5,6,7,8-tetrahydro-1,7-naphthyridine-2-carboxamide], the IC50 in the test with NCI-H358 cells (Homo sapiens, NCI-H358, 2 h) is 16 nM; in test [1] it was 2.1 nM.

Turning to `C=CC(=O)N1CCN(c2cc(C(=O)NC[C@@H]3CCCN3)nc3c2CCN(c2cccc4cccc(C)c24)C3)C[C@@H]1CC#N` [Compound 97, 4-((S)-4-acryloyl-3-(cyanomethyl)piperazin-1-yl)-7-(8-methylnaphthalen-1-yl)-N-(((S)-pyrrolidin-2-yl)methyl)-5,6,7,8-tetrahydro-1,7-naphthyridine-2-carboxamide], the IC50 in the test on NCI-H358 cells (Homo sapiens, NCI-H358, 2 h) was determined as 2480 nM; in test [1], 15 nM.

Regarding `C=CC(=O)N1CCN(c2cc(C(=O)Nc3ccccc3N3CCNCC3)nc3c2CCN(c2cccc4cccc(C)c24)C3)C[C@@H]1CC#N` [Compound 93, (S)-4-(4-acryloyl-3-(cyanomethyl)piperazin-1-yl)-7-(8-methylnaphthalen-1-yl)-N-(2-(piperazin-1-yl)phenyl)-5,6,7,8-tetrahydro-1,7-naphthyridine-2-carboxamide], the IC50 with NCI-H358 cells (Homo sapiens, NCI-H358, 2 h) was 24400 nM; in test [1], 1840 nM.

Take `C=CC(=O)N1CCN(c2cc(C(=O)NC(C)CN3CCC(F)(F)C3)nc3c2CCN(c2cccc4cccc(C)c24)C3)C[C@@H]1CC#N` (single isomer, unassigned) [Compound 71, 4-((S)-4-acryloyl-3-(cyanomethyl)piperazin-1-yl)-N—((R or S)-1-(3,3-difluoropyrrolidin-1-yl)propan-2-yl)-7-(8-methylnaphthalen-1-yl)-5,6,7,8-tetrahydro-1,7-naphthyridine-2-carboxamide]: the IC50 in the test on NCI-H358 cells was determined as 5550 nM; in test [1], 32 nM.

With `C=CC(=O)N1CCN(c2cc(C(=O)NC(C)CN3CCC(C)(O)C3)nc3c2CCN(c2cccc4cccc(C)c24)C3)C[C@@H]1CC#N` (single isomer, unassigned) [Compound 73, 4-((S)-4-acryloyl-3-(cyanomethyl)piperazin-1-yl)-N—((R or S)-1-((R or S)-3-hydroxy-3-methylpyrrolidin-1-yl)propan-2-yl)-7-(8-methylnaphthalen-1-yl)-5,6,7,8-tetrahydro-1,7-naphthyridine-2-carboxamide], the IC50 in the test on NCI-H358 cells was 257 nM; in test [1], 9.7 nM.
